Assay [1] relates to stimulated primary human T cells. The assay is described as follows: T cell proliferation assay (rescue of proliferation in presence of ATP, CFSE dilution). In kind it is cell-based. Conditions: 100 uM ATP. Here is the method: The aim of this study was to determine the potency of equilibrative nucleoside transporter 1 (ENT1) inhibitors to rescue proliferation by stimulated primary human T cells incubated in the presence of 100 uM Adenosine triphosphate (ATP), in baseline conditions (condition A) or in the presence of various proteins known to bind small molecules (condition B). Condition A: X-VIVO15 Condition B: X-VIVO15, 2% Human Serum Albumine (HSA) and 0,1% α-1-Acid Glycoprotein (AAG)
Cryopreserved purified human CD3+ T cells were thawed and washed twice with RPMI1640 medium, UltraGlutamine containing 10% hiFBS.
Cells were suspended in PBS containing 10% hiFBS. Cells were stained with CFSE by adding 2 µM solution in PBS, to get a final 1 µM CFSE solution. Cells were incubated while rotating for 5 minutes. Reaction was stopped by adding PBS with 10% FBS and cells were centrifuged for 5 minutes at 1500 rpm.
Cells were resuspended at 1.6 ×10^6 cells/mL, either in X-VIVO15 medium or in 4% Human Serum Albumin and 0,2% α-1-Acid Glycoprotein. 50 µL of cell suspension (8×10^4 T cells) was added to wells of sterile round-bottom 96-well plates. Cells were activated by adding 50 µL of anti-CD3 anti-CD28 coated microbeads, suspended either in XVIVO-15 medium or in 4% HSA and 0,2% α-1-Acid Glycoprotein, at a ratio of one microbead per two cells. Serial dilutions of the ENT1 inhibitors were prepared in X-VIVO15 from 10 mM stock solutions in DMSO, and 50 µL was added to the wells. ATP powder was diluted in X-VIVO15, and 50 µL of this compound was added to the wells to reach a final assay concentration of 100 µM. Final volume of 200 µL. The experiments were also performed in 384 well plates - all volumes reduced by a factor of 4 (12,5 µL) with a final volume of 50 µL. Experiments were performed in duplicate. The cells were placed in a 37° C. humidified tissue culture incubator with 5% CO2 for 72 hours for 96 well plates, 96 hours for 384 well plates. After 72 or 96 hours, proliferation was measured determined by CFSE dilution via flow cytometry.

Assay [2] has as its target T1, human ENT1 (Homo sapiens, UniProt Q99808).
T1 sequence (Q99808 1-456): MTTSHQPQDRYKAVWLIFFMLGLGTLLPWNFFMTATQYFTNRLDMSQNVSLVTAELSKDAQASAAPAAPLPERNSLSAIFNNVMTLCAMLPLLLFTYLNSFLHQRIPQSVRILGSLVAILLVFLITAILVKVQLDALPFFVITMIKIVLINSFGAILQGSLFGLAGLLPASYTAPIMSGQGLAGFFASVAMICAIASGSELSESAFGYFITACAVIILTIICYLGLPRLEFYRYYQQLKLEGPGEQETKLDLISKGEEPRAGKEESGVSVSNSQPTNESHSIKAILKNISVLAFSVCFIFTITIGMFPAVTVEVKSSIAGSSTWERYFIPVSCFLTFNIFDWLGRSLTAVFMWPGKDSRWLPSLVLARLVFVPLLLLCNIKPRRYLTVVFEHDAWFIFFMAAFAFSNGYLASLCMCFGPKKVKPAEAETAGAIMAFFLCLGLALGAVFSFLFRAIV
The assay is described as follows: ENT1 binding assay (competition with Sahenta-DY647 on JAR cells). Further details: JAR cells expressing ENT1 were bought from ATCC® (HTB-144TM); host or cells: JAR cells (human choriocarcinoma line; whole cells). Conditions: competition with Sahenta-DY647 100 nM, 4° C. An outline of the steps:
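Competition binding on intact JAR cells (50000 per well) in HBSS with 10 mM Hepes and 0.1% BSA. Cells pre-incubated with compound 30 min at 4 °C, then Sahenta-DY647 added at its IC90 (100 nM) for another 30 min at 4 °C; after washing, fluorescence read at Ex 630/Em 670 nm.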

In a further assay the target is T2, hERG ion channel (Homo sapiens, UniProt Q12809).
T2 construct: Chinese Hamster Ovary cell lines stably expressing the full-length ion channel; expressed in transfected cells
T2 sequence (Q12809 whole entry): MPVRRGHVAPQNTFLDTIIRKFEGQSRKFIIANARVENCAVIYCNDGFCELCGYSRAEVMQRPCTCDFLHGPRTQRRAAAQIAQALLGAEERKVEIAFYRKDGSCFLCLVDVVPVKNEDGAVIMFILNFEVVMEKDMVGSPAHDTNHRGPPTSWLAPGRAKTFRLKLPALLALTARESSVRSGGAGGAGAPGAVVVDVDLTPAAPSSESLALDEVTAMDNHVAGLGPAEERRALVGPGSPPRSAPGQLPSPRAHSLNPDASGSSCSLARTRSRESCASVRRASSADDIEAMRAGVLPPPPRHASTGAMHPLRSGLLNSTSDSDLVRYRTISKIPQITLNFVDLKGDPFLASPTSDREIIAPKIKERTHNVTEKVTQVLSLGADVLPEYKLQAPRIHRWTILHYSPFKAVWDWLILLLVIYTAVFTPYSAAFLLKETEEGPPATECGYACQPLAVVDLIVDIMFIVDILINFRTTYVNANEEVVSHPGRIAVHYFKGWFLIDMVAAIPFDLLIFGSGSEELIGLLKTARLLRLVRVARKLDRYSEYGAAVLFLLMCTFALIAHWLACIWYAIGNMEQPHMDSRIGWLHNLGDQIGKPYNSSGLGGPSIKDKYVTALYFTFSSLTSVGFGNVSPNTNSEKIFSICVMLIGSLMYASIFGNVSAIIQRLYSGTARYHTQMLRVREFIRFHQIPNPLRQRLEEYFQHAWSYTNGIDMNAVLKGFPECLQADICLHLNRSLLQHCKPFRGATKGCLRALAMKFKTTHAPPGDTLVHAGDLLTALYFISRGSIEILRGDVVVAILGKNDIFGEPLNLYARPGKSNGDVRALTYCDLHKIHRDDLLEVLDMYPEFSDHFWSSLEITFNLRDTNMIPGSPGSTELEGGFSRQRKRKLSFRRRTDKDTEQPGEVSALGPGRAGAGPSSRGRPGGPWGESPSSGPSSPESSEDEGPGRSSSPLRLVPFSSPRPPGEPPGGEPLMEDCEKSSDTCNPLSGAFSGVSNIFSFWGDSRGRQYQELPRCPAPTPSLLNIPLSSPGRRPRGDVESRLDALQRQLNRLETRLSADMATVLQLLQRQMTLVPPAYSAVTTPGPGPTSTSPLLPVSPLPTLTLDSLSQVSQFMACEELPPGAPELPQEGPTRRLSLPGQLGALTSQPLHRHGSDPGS
Kind of assay: hERG ion channel inhibition (Patchliner automated patch-clamp, CHO cells). The format is cell-based. The following applies: whole-cell, room temperature, 6-point curve up to 100 µM. The method, then:
The compounds were tested for inhibition of hERG ion channel. 6-Point concentration-response curves were generated on the Patchliner automated patch-clamp using serial dilutions from a maximum test concentration of 100 µM.
Compounds were solubilised to 33 mM in DMSO before dilution in HBPS to 100 µM. 6-Point concentration-response curves were generated using serial dilutions from the top test concentration. Electrophysiological recordings were made from a Chinese Hamster Ovary cell lines stably expressing the full-length ion channel. Single cell ionic currents were measured in whole-cell configuration at room temperature (21-23° C.) using a Patchliner (Nanion Technologies). The internal solution for hERG contained (mM): 120 KF, 20 KCl, 10 EGTA, 10 HEPES and was buffered to pH 7.3. The external solution (HEPES-buffered saline, HBPS) contained (mM): 138 NaCl, 4.5 KCl, 1.8 CaC12, 1.0 MgC12, 10 HEPES, 10 glucose, buffered to pH7.4. Cells were clamped at a holding potential of -80 mV before a depolarising step appropriate for the hERG channel. Currents were measured from the step and referenced to the holding current. Compounds were incubated for 90 seconds. Concentration-response curves were generated by cumulative addition of compound with concentrations low to high. In all cases, steady-state inhibition was achieved before the next concentration of compound was added.
IC50 values were obtained from a 4-parameter logistic fit of the concentration-response data: […]
Background: The hERG channel carries a current that helps repolarise heart muscle cells.

Assay [3] concerns the target T1, human ENT1. Kind of assay: Uridine transport inhibition assay (3H-uridine uptake in MDCKII-ENT1-LV cells). In kind it is cell-based. Conditions: uridine 1 µM, 1 min at 25° C. From the text: The aim of this study was to determine the potency of equilibrative nucleoside transporter 1 (ENT1) inhibitors by measuring ENT1-mediated transport is the cellular uptake assay. The human ENT1 transporter can be stably expressed in Madin-Darby Canine Kidney II (MDCKII) cells via transduction. Uridine is efficiently transported by ENT1 and is used as probe in the assay as 3 H-uridine. The interaction is detected as the modulation of the initial rate of 3 H-uridine transport by human ENT1 into MDCKII-ENT1-LV cells stably expressing ENT1 uptake transporter.

The subject of the next assay is human T cells. Kind of assay: T cell stimulation assay (Example III, FIG. 1). In kind it is cell-based. Conditions: ATP 100 µM. The method, then:
FIG. 1A depicts a graph of log concentration (M) versus percent proliferation. Purified human T cells were activated with anti-CD3/CD28 dynabeads in the presence of ATP (100 µM) as a source of adenosine for 96 h and then proliferation was assessed by CFSE dilution.
FIG. 1B depicts a graph of log concentration of ENT1 inhibitor (M) versus percent proliferation. Experiment performed as in FIG. A with the addition of HSA and AAG to the culture medium (final concentration 2 and 0.1%, respectively).
Peripheral blood mononuclear cells (PBMCs) were first isolated via centrifugation of fresh whole blood over Lymphoprep using SepMate-50 tubes (both from […] Technologies) according to the manufacturer’s instructions. Human T cells were then isolated from the PBMCs using the EasySep Human T cell Isolation Kit ([…] Technologies) according to the manufacturer’s instructions and the cells were cryopreserved in FBS with 10% DMSO until required.
Cryopreserved human T cells were thawed on the day of the experiment and resuspended in PBS with 10% FBS at approximately 1 × 10^7 cells/ml. This cell suspension was diluted 1:1 with 2 µM CFSE solution (ThermoFisher Scientific) in PBS and incubated for 5 minutes at room temperature. The labelling reaction was quenched by further addition of PBS with 10% FBS, and then the cells were washed into X-VIVO15 medium (Lonza) for use in the T cell assay.
CFSE-labelled T cells were plated at 2 × 10^4 cells per well in 384 well plates in the presence of ATP (100 µM, Sigma-Aldrich) as a source of adenosine. Activation was driven by the addition of Dynabeads Human T-Activator CD3/CD28 (ThermoFisher Scientific) at a ratio of 0,5 beads per T cell. ENT1 inhibitor molecules including the reference molecule dilazep (Tocris Bioscience) were added, the volume of the wells was adjusted to 50 µl with X-VIVO15 medium and the plates were cultured in a humidified incubator for 96 h at 37° C. with 5% CO2. In some experiments the culture was supplemented with human serum albumin (HSA) and alpha-1-acid glycoprotein (AAG, both Sigma-Aldrich) at final concentrations of 2 and 0,1%, respectively.
Analysis of proliferation via CSFE dilution was performed by flow cytometry using a BD LSR Fortessa with data analysis on FlowJo (BD Biosciences).

A further assay relates to MCA205 cells. Kind of assay: Syngeneic fibrosarcoma model (MCA205, FIG. 4). In kind it is in vivo, C57BL/6 mice. The method, then:
FIG. 4 consists of three graphs: A, B, and C depicting the evalution of to assess the anti-tumor efficacy of compound Compound 8 in syngeneic fibrosarcoma model.
To assess the anti-tumor efficacy of compound Compound 8 in syngeneic fibrosarcoma model, C57BL/6 (n=8) were subcutaneously inoculated with […] MCA205 cells in the right flank. At day 8 after inoculation the mice were randomized according tumor size and received oral treatment of Compound 8 at 10 mg/kg or its vehicle. The mice were monitored 3 times a week for tumor measurements, and the data plotted below. […] (FIG. 4B and FIG. 4C) At day 21 after inoculation, 57% of the mice treated with 10 mg/kg of Compound 8 were responsive to Compound 8 treatment and at day 31 15% of the mice presented significant tumor growth delay with tumors below 1000 mm^3. The statistical analysis was performed in JMP software using linear fixed model.

Setting [4] is: Condition A: X-VIVO15, read-out: T Cell proliferation (Condition A) IC50.
[5] abbreviates: Condition B: X-VIVO15, 2% HSA and 0,1% AAG, read-out: (2) T Cell proliferation (Condition B) IC50.
[6] abbreviates: anti-CD3/CD28 dynabeads, 96 h (FIG. 1A), read-out: IC50 of restoration of T cell proliferation.
Where [7] appears, read: with HSA 2% and AAG 0,1% (FIG. 1B), read-out: IC50 of restoration of T cell proliferation under high protein binding conditions.

Each structure is given as a SMILES string. Like-named read-outs stand apart in the source and are kept apart here.

For the molecule `COc1cc(C(=O)OC2CCCOc3cc(cc(OC)c3OC)C(=O)OCCCN3CCN(CC2)CC(F)(F)C3)cc(OC)c1OC` (stereo not drawn) [Compound 4, 16,16-difluoro-74,75-dimethoxy-6-oxo-5,8-dioxa-1(1,4)-diazepana-7(1,3)-benzenacyclotetradecaphane-12-yl 3,4,5-trimethoxybenzoate], the IC50 in assay [1] (setting [4]) was under 1 nM; in assay [1] (setting [5]), 1 to 20 nM; at human ENT1 [2], 1 to 20 nM; against hERG ion channel, 73000 nM; against human ENT1 [3] it was 1 to 20 nM.
Turning to `COc1cc(C(=O)OC2CCCOc3cc(cc(OC)c3OC)C(=O)NCCCN3CCCN(CC2)CC3)cc(OC)c1OC` (stereo not drawn) [Compound 8, 74,75-dimethoxy-6-oxo-8-oxa-5-aza-1(1,4)-diazepana-7(1,3)-benzenacyclotetradecaphane-12-yl 3,4,5-trimethoxybenzoate], the IC50 with human T cells (setting [6]) is 2 nM; in the assay on human T cells (setting [7]) it was 16 nM; on human ENT1 [2], 1 to 20 nM. For the same molecule, the “Median tumor growth kinetics versus vehicle” value in the assay on MCA205 cells (10 mg/kg oral (FIG. 4A)) is “slight change in tumor size”. Also, the “Mice responsive to treatment” value in the assay on MCA205 cells (10 mg/kg oral, day 21 after inoculation) was determined as 57%. The “Mice with significant tumor growth delay, tumors below 1000 mm^3” value in the assay on MCA205 cells (10 mg/kg oral, day 31 after inoculation) worked out at 15%.
As for `COc1cc(C(=O)O[C@@H]2CCCOc3cc(cc(OC)c3OC)C(=O)NCCCN3CCCN(CC2)CC3)cc(OC)c1OC` [Compound 10, (12R)-74,75-dimethoxy-6-oxo-8-oxa-5-aza-1(1,4)-diazepana-7(1,3)-benzenacyclotetradecaphane-12-yl 3,4,5-trimethoxybenzoate], the IC50 in assay [1] (setting [4]) is 1 to 20 nM; in assay [1] (setting [5]), 20 to 500 nM; on human ENT1 [2] it was 1 to 20 nM; on hERG ion channel, 3400 nM; against human ENT1 [3], 1 to 20 nM.
On to `COc1cc(C(=O)O[C@@H]2CCCOc3cc(cc(OC)c3OC)C(=O)N(C)CCCN3CCCN(CC2)CC3)cc(OC)c1OC` [Compound 13, (12R)-74,75-dimethoxy-5-methyl-6-oxo-8-oxa-5-aza-1(1,4)-diazepana-7(1,3)-benzenacyclotetradecaphane-12-yl 3,4,5-trimethoxybenzoate], for which the IC50 in assay [1] (setting [4]) was 1 to 20 nM; in assay [1] (setting [5]) it was over 500 nM; at human ENT1 [2] it was 1 to 20 nM; against human ENT1 [3] it was 1 to 20 nM.
For `COc1cc2cc(c1OC)OCCCC(OC(=O)c1ccccn1)CCN1CCCN(CCCOC2=O)CC1` (stereo not drawn) [Compound 52, 74,75-dimethoxy-6-oxo-5,8-dioxa-1(1,4)-diazepana-7(1,3)-benzenacyclotetradecaphane-12-yl picolinate], the values for the IC50 on human ENT1 [2] and against hERG ion channel were 1 to 20 nM and 2700 nM, respectively.
In the case of `COc1cc(C(=O)OCCCN2CCCN(CCCOC(=O)c3cc(OC)c(OC)c(OC)c3)CC2)cc(OC)c1OC` [Dilazep, dilazep, reference compound], the IC50 with human T cells (setting [6]) was 71 nM; in the assay with human T cells (setting [7]), 337 nM; in assay [1] (setting [4]), 1 to 20 nM; in assay [1] (setting [5]) it was 20 to 500 nM; against hERG ion channel, 900 nM.

The record behind these values is patent US20230203058A1, “MACROCYCLIC DIAMINE DERIVATIVES AS ENT INHIBITORS FOR THE TREATMENT OF CANCERS, AND COMBINATION THEREOF WITH ADENOSINE RECEPTOR ANTAGONISTS” (ITEOS BELGIUM SA, priority 2020, published 2023).
